Results on 8 compounds are retold here after patent publication US8101740B2, “Positron emission tomography probes for imaging immune activation and selected cancers” (The Regents of the University of California, priority 2007, dated 2012).

Series [1] has as its system L1210 wild type or 10K subcutaneous tumors. Description: PET of subcutaneous L1210 wild type and 10K tumors. Type of series: in vivo, SCID mice. On the procedure: To investigate whether [^18F]D-FAC PET can distinguish gemcitabine-sensitive cancer cells from the resistant cancer cells in vivo, mice were injected with L1210 wild type or 10K cells to establish subcutaneous tumors; mice were scanned with [^18F]FDG PET to confirm that implanted cells were viable and growing in vivo and [^18F]D-FAC PET scans were carried out to compare D-FAC accumulation in gemcitabine sensitive versus resistant cells. […] The mice were injected 4 days prior to imaging.
Mice were challenged with the MoMSV onco-retrovirus.

Another series relates to MoMSV-induced sarcomas. Description: microPET/CT in oncoretrovirus (MoMSV) sarcoma model of anti-tumor immunity. On the procedure:
All the mice used in these studies were bred and maintained according to the guidelines of the Department of Laboratory Animal Medicine (DLAM) at the University of California, Los Angeles. For the oncoretrovirus-induced sarcoma model, C57/BL6 mice were challenged intramuscularly in the right triceps with the Moloney murine sarcoma and leukemia virus complex (MoMSV) in a volume of 100 uL of PBS as described previously^6. B6-MRL-Fas^1pr/J mice used for systemic autoimmunity studies were purchased from the Jackson Laboratory (stock number 000482). To monitor the immunosuppressive treatment, these mice were given intraperitoneal injections of dexamethasone (DEX, 10 mg/kg) at 24 hr intervals and were scanned by microPET/CT 24 hr after the last injection. Animals were anesthetized with 2% isoflurane, injected intravenously with 200 microCi [^18F]D-FAC and then scanned with microPET/CT; mice were sacrificed immediately after imaging. Organs were rapidly excised, weighed, and the radioactivity was measured in a well counter. After decay correction, results were expressed as percent of the injected dose of activity per gram of tissue (% ID/g). Other mice were anesthetized with 2% isoflurane and injected intravenously with 1 mCi [^18F]D-FAC. After 1 hr, mice were euthanized, embedded in 3% carboxymethyl cellulose (CMC, Sigma), and frozen in 100% ethanol with dry ice for 45 min. The 50 micron sections were cut using a whole body cryostat, (PMV, Stockholm, Sweden); samples were exposed overnight on BAS-TR2025 plates (Fujifilm Life Science, Stamford, Conn.). Imaging plates were read using a Fujibas-5000 phosphorimager (16 bit, 25 micron resolution; Fujifilm Life Science).
In this model, antigen-specific T cells primed by immunodominant epitopes encoded by viral gag and env genes rapidly expand in spleen and tumor draining lymph nodes (DLNs) and then traffic to the tumor lesion which is rejected over a period of 2-5 weeks^17,18. In fact, the kinetics of T cell responses against MoMSV-induced sarcomas have been studied extensively using conventional ex vivo approaches and our group has used PET reporter gene imaging to visualize tumor rejection in this model^17. To analyze whether the [^18F]D-FAC microPET/CT imaging can detect sites of localized immune activation, mice were scanned before and after the virus challenge.
To determine whether [^18F]D-FAC can provide unique information regarding localized immune activation via the afore-mentioned model, the mice imaged by [^18F]D-FAC were also scanned on consecutive days using [^18F]FDG and [^18F]FLT.

The test system of series [2] is L1210 murine leukemia cells (dCK^+). Nature of the series: radioactive tracer uptake assay, L1210 parental cells. Type of series: cell-based. To be noted: for dependence of retention and phosphorylation on dCK expression: L1210 wild type vs 10K cells, 1 hour incubation. The text has this: (§1) To evaluate whether [^18F]D-FAC PET can determine resistance to gemcitabine and Ara-C, we used a previously described experimental model based on the L1210 murine leukemia cells and their gemcitabine/Ara-C resistant 10K derivatives^20. The molecular defect responsible for resistance in the L1210 10K cells is loss of dCK expression due to a genetic modification of chromosome 5 in the 3′ region of the dCK gene. The 10K cell line was derived by exposing the parental L1210 cells to increasing concentrations of gemcitabine^20; before experiments, we confirmed that L1210 10K cells lack expression of dCK at the protein level (FIG. 13). Thus, to determine whether D-FAC retention correlates with gemcitabine resistance in these cells, we performed radioactive tracer uptake assays using [^3H]D-FAC with [^3H]-FLT used as a negative control. We observed that the gemcitabine-resistant L1210-10K cell line retained much lower amounts of [^3H]D-FAC in contrast to the gemcitabine-sensitive L1210 parental cell line (FIG. 14A). In fact, [^3H]D-FAC uptake was 40-fold higher in dCK^+ cells compared to cells lacking dCK activity (dCK^+=1288 fmols/1×10^5 cells; dCK-=34 fmols/1×10^5 cells; p<0.001). In contrast, [^3H]FLT uptake was indistinguishable between these cell lines. FIG. 14B presents a [^3H]D-FAC kinase assay with the L1210 cell lines using [^3H]D-FAC as a substrate (1 microgram protein/reaction). In dCK positive cells shown in FIG. 14B, D-FAC phosphorylation was 52-fold higher than in dCK deficient cells (dCK^+=62 fmols; dCK^−=1.2 fmols; p=0.028). Reintroduction of dCK into the L1210-10K cells restored [^18F]D-FAC uptake and phosphorylation (FIG. 14), thus further confirming the critical role of this nucleoside kinase in regulating D-FAC metabolism.
(§2) Each cell type was incubated separately with each of the following: [^18F]L-FAC, and [^18F]-CA, and the positive control [^18F]D-FAC. The cells were incubated with [^18F]L-FAC, [^18F]-CA, and [^18F]D-FAC for 1 hour. Following successive washes, intracellular radioactivity was measured by scintillation counting to obtain the result shown in FIG. 17A.

Series [3] in a line: chromatography of plasma after intravenous injection of probe (deamination). Type of series: in vivo, C57BL/6 mouse. To be noted: plasma 10 and 45 minutes after intravenous injection.
A short description of series [4]: chromatography after incubation of probe with human plasma. To be noted: 10 and 45 minutes incubation.
Procedure: FIG. 19 presents chromatographs of [^18F]D-FAC (FIG. 19C) and [^18F]L-FAC (FIG. 19D) in plasma 10 minutes and 45 minutes after the probe was incubated with human plasma.
The subject of series [5] is pancreatic inflammatory lesions. Description: PET/CT scan of human with chronic pancreatitis. Type of series: in vivo. Particulars: person. The text has this:
FIG. 30 presents PET/CT scans of a human with chronic pancreatitis. The pancreas head 301 is visible.

The target of series [6] is T1, deoxycytidine kinase (dCK) (Mus musculus, UniProt P43346).
T1 construct: endogenous in cells; host or cells: L1210 murine leukemia cells (wild type), whole-cell lysate; L1210-10K (dCK-deficient) as negative control
T1 sequence (P43346 whole entry): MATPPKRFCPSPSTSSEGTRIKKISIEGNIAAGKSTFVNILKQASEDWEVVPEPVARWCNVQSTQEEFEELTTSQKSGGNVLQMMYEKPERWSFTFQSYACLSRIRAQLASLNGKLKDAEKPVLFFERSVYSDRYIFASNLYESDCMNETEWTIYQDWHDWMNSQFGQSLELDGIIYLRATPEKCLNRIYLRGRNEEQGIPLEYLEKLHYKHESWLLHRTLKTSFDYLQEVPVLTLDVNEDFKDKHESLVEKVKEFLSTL
Nature of the series: kinase assay with L1210 cell line lysates. Type of series: biochemical, murine. To be noted: L1210 WT and 10K lysates, 20 minutes incubation.
Text: as §1, §2
Lysates from L1210 wildtype (WT) and dCK deficient (10K) cells were incubated for 20 minutes with [^18F]L-FMAC; phosphorylated products were measured by scintillation counting.

Series [7] deals with T lymphocytes from pmel-1 T cell receptor (TCR) transgenic mice. Nature of the series: retention of ^3H-labeled nucleoside analogs in naïve and proliferating primary T cells. To be noted: 1 hr incubation, 72 hrs after stimulation. Type of series: cell-based, mouse. On the procedure: In order to identify candidates for PET probes that can distinguish between activated T cells and non-activated, naïve T cells, we conducted a radioactive uptake assay, the results of which are shown in FIG. 1. […] These measurements were performed after incubating cells with radioactive compounds for 1 hr and performing successive washes to remove unincorporated probes. […] For example, we identified compounds #1 through #15 (see FIG. 2A for chemical structures) as PET probe candidates useful for detecting activated T cells. FIG. 2A presents substrates of dCK labeled with the ^18F positron emitting radioisotope.
T lymphocytes from pmel-1 T cell receptor (TCR) transgenic mice were stimulated ex vivo using a melanoma antigen (1 micromolar hgp 10025-33). These cells were then cultured for radioactive uptake and kinase assays that were performed 72 hours post-stimulation. […] The plate was then washed 5 times with media containing 5% fetal calf serum (FCS) by using the Millipore Vacuum Manifold (Billerica, Mass.); the amount of incorporated probe was measured by scintillation counting using the PerkinElmer Microbeta (Waltham, Mass.). […]
FIG. 1 identifies fluorinated deoxycytidine analogs retained in activated versus naive T lymphocytes and incorporated into DNA. […] Following successive washes, intracellular radioactivity was measured by scintillation counting. […]

Where [8] appears, read: spleen, 60 min after intravenous injection, 3 mice.
Where [9] appears, read: C57/BL6, mouse, in vivo, iv, 60 min.

Where two headings read alike, the source gives them in different places. Some results are limits rather than exact numbers.

For “2-[^18F]fluoro-2-deoxy-D-glucose [[^18F]FDG, reference compound]”, in series [1] (mouse, in vivo), the “accumulation in gemcitabine sensitive versus resistant cells” value is recorded as “equivalent”. Also, the “retention in the brain and the myocardium” value (mouse, in vivo) is recorded as “substantially accumulates”. The “Spleen, % ID/g per organ normalized to % ID/g muscle” value (shortened to “Spleen, % ID/g per organ normalized”) under setting [8] was 1.69 +/− 0.16 % ID/g per organ normalized to % ID/g muscle. Besides, in the series on MoMSV-induced sarcomas (tumor lesions), the “accumulation in tumor over background (contralateral muscle tissue)” value is listed as 8.2±4.2 % ID/g tumor over background.

Regarding `Cc1cn([C@H]2C[C@H](F)[C@@H](CO)O2)c(=O)[nH]c1=O` [[^3H]FLT, 3′-fluoro-3′-deoxythymidine, reference compound], in series [2] (negative control), the “uptake compared between L1210 and L1210-10K cell lines” value is on record as “indistinguishable”.

On to `Nc1nc(Cl)nc2c1ncn2[C@@H]1O[C@H](CO)[C@@H](O)[C@@H]1[18F]` [[^18F]-CA, 2-chloro-9-(2′-deoxy-2′-[^18F]fluoro-β-D-arabinofuranosyl)adenine], for which, in series [2], the “dependence of retention and phosphorylation on dCK expression” value (shortened to “dependence”) is given as “requires dCK expression”.

On to `Cc1cn([C@H]2C[C@H](F)[C@@H](CO)O2)c(=O)[nH]c1=O` [[^18F]FLT, 3′-fluoro-3′-deoxythymidine], for which, under setting [9], the “Spleen, % ID/g per organ normalized” value is given as 1.02 +/− 0.21 % ID/g per organ normalized to % ID/g muscle; the “Thymus, % ID/g per organ normalized to % ID/g muscle” value was 1.22 +/− 0.23 % ID/g per organ normalized to % ID/g muscle; the “accumulation in thymus and spleen” value is “neither [^18F]FLT nor [^18F]D-FMAU showed detectable accumulation”. For the same compound, the “accumulation at sites of immune activation” value in the series with MoMSV-induced sarcomas (day 14) was “no detectable”.

Consider `Cc1cn([C@@H]2O[C@H](CO)[C@@H](O)[C@@H]2F)c(=O)[nH]c1=O` [[^18F]FMAU, 1-(2′-Deoxy-2′-fluoro-β-D-arabinofuranosyl)-5-methyluracil], for which, where the note is “60 min after intravenous injection”, the “accumulation in thymus and spleen” value is “neither [^18F]FLT nor [^18F]D-FMAU showed detectable accumulation”. In addition, the “Spleen, % ID/g per organ normalized” value under setting [8] is recorded as 1.08 +/− 0.27 % ID/g per organ normalized to % ID/g muscle. For the setting “thymus, 60 min after intravenous injection, 3 mice”, the “Thymus, % ID/g per organ normalized to % ID/g muscle” value was 1.33 +/− 0.24 % ID/g per organ normalized to % ID/g muscle.

Regarding `Nc1ccn([C@H]2O[C@@H](CO)[C@H](O)[C@H]2[18F])c(=O)n1` [[^18F]L-FAC, 1-(2′-deoxy-2′-[^18F]fluoro-β-L-arabinofuranosyl)cytosine], the “retention/visualization in dCK deficient, gemcitabine resistant tumors” value in series [1] (L1210-10K, 4 days after injection) is listed as “not visualization”. The “retention/visualization in dCK positive, gemcitabine sensitive tumors” value in series [1] (L1210 WT, 4 days after injection) is on record as “allows visualization”. Also, the “resistance to deamination in plasma after injection into mice” value in series [3] is “more resistant to deamination than [^18F]D-FAC”. The “biodistribution compared with [^18F]D-FAC” value (60 minutes after intravenous injection) is “resembles that of [^18F]D-FAC”. Also, the “stability in human plasma” value in [4] was “improved stability relative to [^18F]D-FAC”. Also, in [5], the “accumulation in pancreatic inflammatory lesions” value is “clear accumulation”. The “dependence” value in [2] is reported as “requires dCK expression”.

As for `Cc1cn([C@H]2O[C@@H](CO)[C@H](O)[C@H]2[18F])c(=O)nc1N` [[^18F]L-FMAC], in series [6], the “dependence” value is recorded as “requires dCK expression”. For the same compound, the “resistance to deamination in plasma after injection into mice” value in series [3] was “resistant to deamination”.

On to `Nc1ccn([C@@H]2O[C@H](CO)[C@@H](O)C2(F)F)c(=O)n1` [dFdC, 2′,2′-difluorodeoxycytidine, reference compound], for which the “difference in probe retention by proliferating compared to naïve T cells” value in series [7] was above 20 fold.
